According to patent US9603844B2, “Compositions and methods for treating mammary tumors” (GEORGETOWN UNIVERSITY, priority 2012, dated 2017):

Columns and labels:
[1] = tested on: progesterone receptor (PR) activity in T47D cells; test: MMTV-Luc reporter assay for PR activity in T47D cells; type: cell-based, human; details: R5020 10 nM
Description: FIG. 10 depicts that the inhibition of ER activity by these six compounds is not to due to non-specific cytotoxicity, since cell viability remained over 80% after a 24-hr exposure to 1 μM of each of the compounds (A). One of the compounds was tested for its ability to inhibit progestin-stimulated progesterone receptor (PR) activity in a PR+ human breast cancer cell line (T47D), using the MMTV-Luc reporter as a readout for PR activity (B). Here, PR activity was stimulated over 20-fold by the synthetic progestin R5020 (10 nM), but compound 4631-P/1 had no effect on PR activity at either 1 μM or 20 μM.
Progesterone receptor (PR) transcriptional activity assays were carried out in T47D cells using the synthetic progestin R5020 (10 nM) to activate PR and the MMTV-Luc reporter as a readout for PR activity.
Subconfluent proliferating MCF-7 cells were treated with vehicle (DMSO) or with the a sensitizing compound for 24 hours and then assayed for cell viability using MTT dye reduction assays. […] Subconfluent proliferating T47D cells were also transfected overnight with a progesterone-responsive reporter (MMTV-Luc) and then exposed to a synthetic progestin (R5020, 10 nM) for 24 hours in the absence or presence of compound 4631 P/1, as indicated.

[2] = tested on: ER activity in MCF-7 cells; test: ERE-TK-Luc reporter assay in MCF-7 cells; type: cell-based, human
Excerpt: (§1) FIG. 8 depicts BRCA1 over-expression partially restores Tamoxifen sensitivity to anti-estrogen-resistant LCC9 cells. The effect of BRCA1 over-expression (by transfection of a wild-type (wt) full-length BRCA1 expression vector) was studied in E2-insensitive anti-estrogen resistant LCC9 human breast cancer cells with E2-sensitive/anti-estrogen sensitive MCF-7 breast cancer cells. The wtBRCA1 suppressed the constitutive ER activity (measured using the ERE-TK-Luc reporter as a readout), but Tam (5 μM) by itself had no effect on ER activity (A and B (left)). […] When MCF-7 cells were tested in the absence of E2, ER activity was very low under most conditions (illustrating the requirement for E2 to activate ER), but in the absence of E2, Tam functioned as an ER agonist and caused about a (5-6)-fold increase in ER activity (P<0.001).
FIG. 9 depicts the inhibition of E2-stimulated ER activity in MCF-7 cells by six compounds.
Subconfluent cells in 24-well dishes were transfected overnight with 0.25 μg of each indicated vector plus the ERE-TK-Luc reporter in serum-free DMEM containing Lipofectamine2000 (Life Technologies). The total transfected DNA was kept constant by addition of the appropriate control vector. […]

[3] = tested on: ER activity in LCC9 cells; test: ERE-TK-Luc reporter assay in LCC9 cells; type: cell-based, human; details: Tam 5 μM, wtBRCA1 expression vector transfected
Description: FIG. 3 depicts the inhibition of ER activity in anti-estrogen resistant LCC9 cells. LCC9 cells in 24-well dishes were transfected overnight with the ERE-TK-Luc reporter plasmid (0.25 μg per well), washed, and allowed to recover for several hours in fresh culture medium. The cells were then treated with the indicated concentrations of the six bioactive compounds or vehicle only (DMSO) for 24 hr and assayed for luciferase activity. Luciferase activity is expressed as a percentage of the DMSO control. Values are means±SEMs of four replicate wells.
as §1, with “(P<0.001). […]” for “(P<0.001).”

[4] = tested on: cathepsin D (E2/ER-regulated gene) in MCF-7 cells; test: cathepsin D protein expression in MCF-7 cells; type: cell-based, human; details: 24-hr exposure to E2 (10 nM)
Description: FIG. 7 depicts the ability of compounds 4631-P/1 and 35466-L/1 to inhibit the expression of an ER-regulated gene. Cathepsin D was used as a prototype E2/ER-regulated gene.
For Western blotting, after the indicated treatment(s), cells were harvested, and whole-cell lysates were prepared using RIPA buffer (Santa Cruz). Equal aliquots of whole-cell protein (either 100 μg unprecipitated whole-cell lysate or one half of the precipitated protein from 500 μg whole-cell lysate) were electrophoresed on 4-12% SDS-polyacrylamide gradient gels, transferred to nitrocellulose membranes (Millipore, Bedford, Mass.), and blotted using primary antibodies directed against BRCA1 (C-20, rabbit polyclonal, 1:200 dilution; Santa Cruz), ER (F10, mouse monoclonal, sc-8002, 1:500; Santa Cruz), and actin (goat polyclonal, catalog item sc-1615, 1:400; Santa Cruz). The membranes were then blotted with the appropriate secondary antibodies (1:1000; Santa Cruz), and the blotted proteins were visualized using an electrochemiluminescence (ECL) detection system (Amersham Biosciences), with colored markers (Bio-Rad Laboratories, Hercules, Calif.) as molecular size standards.

[5] = tested on: BRCA1 protein levels; test: siRNA efficacy validation by Western blotting; type: cell-based; details: minimum 48 hr exposure to 100 nM siRNA
Description: (catalog number: 43924220, Ambion/Life Technologies; and negative control-siRNA (catalog number: AM4461, Ambion). The efficacy of the ER-siRNA was validated by Western blotting. For siRNA treatments, subconfluent cells were treated with ER-specific or control siRNAs (final concentration of 100 nM) using siPORT Amine transfection reagent (Ambion), according to the manufacturer's instructions.

Compound: CCC(=O)[C@@]1(C)CC[C@H]2[C@@H]3CCC4=CC(=O)CCC4=C3CC[C@@]21C [R5020]
- stimulation of PR activity [1]: over 20 fold

Compound: CC/C(=C(\c1ccccc1)c1ccc(OCCN(C)C)cc1)c1ccccc1 [Tam, Tamoxifen]
- increase in ER activity in the absence of E2 ([2]; absence of E2, P<0.001): 5-6 fold
- E2-stimulated ER activity in MCF-7 cells (ERE-TK-Luc) ([2]; with E2): strongly suppressed
- constitutive ER activity in LCC9 cells (ERE-TK-Luc) [3]: no effect

Compound: C[C@]12CC[C@@H]3c4ccc(O)cc4CC[C@H]3[C@@H]1CC[C@@H]2O [E2, 17β-estradiol]
- cathepsin D protein levels after E2 [4]: increased significantly

Compound: ER-siRNA: ER-α small interfering RNA, Ambion catalog number 43924220 (sense CAGGCACAUGAGUAACAAATT; antisense UUUGUUACUCAUGUGCCUGAT; chemistry not given here)
- reduction of the BRCA1 protein levels [5]: > 75%
